Like-named read-outs stand apart in the source and are kept apart here.
Experiments:
PRC2/EZH2+/+ [1] = target: T1, PRC2/EZH2+/+ (Homo sapiens, UniProt Q15910); assay: Equilibrium probe competition assay (ePCA), TR-FRET; type: binding
T1 construct: purchased Active Motif

PRC2/EZH2Y641N [2] = target: T2, PRC2/EZH2Y641N (Homo sapiens, UniProt Q15910, Y641N); assay: as above; type: binding
T2 construct: Synthetic cDNA encoding N-terminal 6His-tagged full length EZH2^Y641N; 6His (N); made in house; host or cells: Sf9 insect cells (baculovirus co-infection)

PRC2/EZH2+/+ [3] = target: T1, PRC2/EZH2+/+; assay: Kinetic probe competition assay (kPCA), TR-FRET; type: binding; conditions: for Kd: sheet ePCA&kPCA RT, read-out: Kinetic Kd
Method: (§1) Biotinylated PRC2 complexes and the fluorescent probe used in TR-FRET assays were generated as described in the supplementary methods section.
For measurements at 25, 30 and 37 °C, the temperature control functionality of the instrument was used.
TR-FRET kPCA traces were exported via Microsoft Excel to GraphPad Prism, where non-specific signals were subtracted and kinetic association competition traces were fitted to the Motulsky–Mahan model “kinetics of competitive binding” to obtain kon (k3), koff (k4) and KD parameters.

PRC2/EZH2Y641N [4] = target: T2, PRC2/EZH2Y641N; assay: Kinetic probe competition assay (kPCA), TR-FRET; type: binding
From the text: as §1

PRC2/EZH2 Y111L = target: T3, PRC2/EZH2 Y111L (Homo sapiens, UniProt Q15910, Y111L); assay: Scintillation proximity assay (SPA) of H3K27 methylation; type: biochemical
T3 construct: N-terminal 6His-tagged full length EZH2^Y641N, EZH2^Y111L; 6His (N); made in house; host or cells: Sf9 insect cells (baculovirus co-infection)
Method: (§2) Assay-ready plates containing 50 nl of compound dilutions and DMSO controls were filled with 2.5 µL enzyme solution and pre-incubated for 15 min. […] Experiments were also performed without pre-incubation of enzyme and compounds. In this case, the substrate solution was added before enzyme. The reaction was stopped using 1.6 µg/µl streptavidin beads (Perkin Elmer) and 700 µM of SAM (Perkin Elmer). The plates were sealed with transparent foil.
(§3) For equilibrium binding competition (ePCA) and SPA enzyme inhibition assays, raw data import, quality control, normalization, and curve fitting to a 4-parameter logistic equation for IC50 determination were performed using the Genedata Screener® software (Genedata AG). ePCA Ki values were either calculated using the Cheng-Prussof equation[68] or with the GraphPad Prism model “One-site—Fit Ki”.

PRC2/EZH2+/+ [5] = target: T1, PRC2/EZH2+/+; assay: as above; type: biochemical
Method: as §2, §3

PRC2/EZH2Y111D = target: T4, PRC2/EZH2Y111D (Homo sapiens, UniProt Q15910, Y111D); assay: as above; type: biochemical
T4 construct: N-terminal 6His-tagged full length EZH2^Y641N, EZH2^Y111L, EZH2^Y111D; 6His (N); made in house; host or cells: Sf9 insect cells (baculovirus co-infection)
Method: as §2, §3

PRC2/EZH2Y641N [6] = target: T2, PRC2/EZH2Y641N; assay: as above; type: biochemical
Method: as §2, §3

PRC2/EZH2Y641N+Y661D = target: T5, PRC2/EZH2Y641N+Y661D (Homo sapiens, UniProt Q15910, Y641N/Y661D); assay: as above; type: biochemical
T5 construct: N-terminal 6His-tagged full length EZH2^Y641N, EZH2^Y111L, EZH2^Y111D, EZH2^Y641N, Y661DEZH2, EZH1; 6His (N); made in house; host or cells: Sf9 insect cells (baculovirus co-infection)
Method: as §2, §3

KARPAS-422 cells = assay: Cellular proliferation assay (AlamarBlue, 144 h); type: cell-based; conditions: Homo sapiens; KARPAS-422 cells, 6-day (144 h), AlamarBlue; read-out: KARPAS (6-day) Anti-proliferation IC50
Method: Cell viability was determined by means of the AlamarBlue® reagent (Thermo Fisher Scientific) following instructions from the manufacturer. […] Anti-proliferative IC50s were calculated by fitting the normalized AlamarBlue® fluorescence values to a 4-parameter logistic equation using the Electronic Notebook (ELN) software from IDBS.

[7] = EZH2Y641N (- H3K27me3), sheet ePCA&kPCA RT

Ki (PRC2/EZH2+/+ [1]; EZH2+/+ (+ H3K27me3), sheet ePCA&kPCA RT, read-out: Equilibrium Ki): 0.00114 µM | Ki (PRC2/EZH2+/+ [1]; EZH2+/+ (- H3K27me3), 5 °C, read-out: Ki (Equilibrium)): 0.00192 µM | Ki (PRC2/EZH2+/+ [1]; EZH2+/+ (- H3K27me3), 15 °C, read-out: Ki (Equilibrium)): 0.0016 µM | Ki (PRC2/EZH2+/+ [1]; EZH2+/+ (- H3K27me3), 30 °C, read-out: Ki (Equilibrium)): 0.00806 µM | Ki (PRC2/EZH2+/+ [1]; EZH2+/+ (- H3K27me3), 37 °C, read-out: Ki (Equilibrium)): 0.00947 µM | Ki (PRC2/EZH2+/+ [1]; EZH2+/+ (- H3K27me3), sheet ePCA&kPCA RT, read-out: Equilibrium Ki): 0.00283 µM | Ki (PRC2/EZH2+/+ [1]; wild type EZH2, absence of H3K27me3 peptide, read-out: Ki): 0.0028 ± 0.0009 µM | Ki (PRC2/EZH2+/+ [1]; wild type EZH2, saturating concentrations of H3K27me3 peptide, read-out: Ki): 0.0011 ± 0.0005 µM | Ki (PRC2/EZH2Y641N [2]; EZH2Y641N (+ H3K27me3), equilibrium, RT sheet): 0.00665 µM | Ki (PRC2/EZH2Y641N [2]; [7]): 0.0265 µM | Calculated RT (PRC2/EZH2+/+ [3]; EZH2+/+ (+ H3K27me3)): 0.20 h | Kd (PRC2/EZH2+/+ [3]; EZH2+/+ (+ H3K27me3)): 0.00054 µM | RT (Calculated) (PRC2/EZH2+/+ [3]; EZH2+/+ (- H3K27me3), 5 °C): 0.341 h | RT (Calculated) (PRC2/EZH2+/+ [3]; EZH2+/+ (- H3K27me3), 15 °C): 0.0983 h | RT (Calculated) (PRC2/EZH2+/+ [3]; EZH2+/+ (- H3K27me3), 30 °C): 0.0171 h | RT (Calculated) (PRC2/EZH2+/+ [3]; EZH2+/+ (- H3K27me3), 37 °C): 0.0129 h | Calculated RT (PRC2/EZH2+/+ [3]; EZH2+/+ (- H3K27me3)): 0.0369 h | Kd (PRC2/EZH2+/+ [3]; EZH2+/+ (- H3K27me3)): 0.00239 µM | Calculated RT (PRC2/EZH2Y641N [4]; EZH2Y641N (+ H3K27me3)): 0.07 h | Kd (PRC2/EZH2Y641N [4]; EZH2Y641N (+ H3K27me3), kinetic, RT sheet): 0.00456 µM | Calculated RT (PRC2/EZH2Y641N [4]; EZH2Y641N (- H3K27me3)): 0.0242 h | Kd (PRC2/EZH2Y641N [4]; [7]): 0.035 µM | IC50 (PRC2/EZH2 Y111L; 0' enzyme:inhibitor pre-incubation, read-out: SPA Mean IC50 (M) - 0' enzyme:inhibitor pre-incubation EZH2 Y111L): 3.1e-08 M | IC50 (PRC2/EZH2 Y111L; 15' enzyme:inhibitor pre-incubation, read-out: SPA Mean IC50 (M) - 15' enzyme:inhibitor pre-incubation EZH2 Y111L): 2.2e-08 M | IC50 (PRC2/EZH2 Y111L; 60' enzyme:inhibitor pre-incubation, read-out: SPA Mean IC50 (M) - 60' enzyme:inhibitor pre-incubation EZH2 Y111L): 2.5e-08 M | IC50 (PRC2/EZH2+/+ [5]; 0' enzyme:inhibitor pre-incubation, read-out: SPA Mean IC50 (M) - 0' enzyme:inhibitor pre-incubation EZH2+/+): 5.2e-09 M | IC50 (PRC2/EZH2+/+ [5]; 15' enzyme:inhibitor pre-incubation, read-out: SPA Mean IC50 (M) - 15' enzyme:inhibitor pre-incubation EZH2+/+): 3.7e-09 M | IC50 (PRC2/EZH2+/+ [5]; 60' enzyme:inhibitor pre-incubation, read-out: SPA Mean IC50 (M) - 60' enzyme:inhibitor pre-incubation EZH2+/+): 3.1e-09 M | IC50 (PRC2/EZH2Y111D; 0' enzyme:inhibitor pre-incubation, read-out: SPA Mean IC50 (M) - 0' enzyme:inhibitor pre-incubation EZH2Y111D): 5.9e-06 M | IC50 (PRC2/EZH2Y111D; 15' enzyme:inhibitor pre-incubation, read-out: SPA Mean IC50 (M) - 15' enzyme:inhibitor pre-incubation EZH2Y111D): 4e-06 M | IC50 (PRC2/EZH2Y111D; 60' enzyme:inhibitor pre-incubation, read-out: SPA Mean IC50 (M) - 60' enzyme:inhibitor pre-incubation EZH2Y111D): 3.2e-06 M | IC50 (PRC2/EZH2Y641N [6]; 0' enzyme:inhibitor pre-incubation, read-out: SPA Mean IC50 (M) - 0' enzyme:inhibitor pre-incubation hEZH2Y641N): 3.8e-08 M | IC50 (PRC2/EZH2Y641N [6]; 15' enzyme:inhibitor pre-incubation, read-out: SPA Mean IC50 (M) - 15' enzyme:inhibitor pre-incubation EZH2Y641N): 3.6e-08 M | IC50 (PRC2/EZH2Y641N [6]; 60' enzyme:inhibitor pre-incubation, read-out: SPA Mean IC50 (M) - 60' enzyme:inhibitor pre-incubation EZH2Y641N): 3.2e-08 M | IC50 (PRC2/EZH2Y641N+Y661D; 0' enzyme:inhibitor pre-incubation, read-out: SPA Mean IC50 (M) - 0' enzyme:inhibitor pre-incubation EZH2Y641N+Y661D): 3e-06 M | IC50 (PRC2/EZH2Y641N+Y661D; 15' enzyme:inhibitor pre-incubation, read-out: SPA Mean IC50 (M) - 15' enzyme:inhibitor pre-incubation EZH2Y641N+Y661D): 2.4e-06 M | IC50 (PRC2/EZH2Y641N+Y661D; 60' enzyme:inhibitor pre-incubation, read-out: SPA Mean IC50 (M) - 60' enzyme:inhibitor pre-incubation EZH2Y641N+Y661D): 3.2e-06 M | IC50 (KARPAS-422 cells): 0.63 µM
SMILES: CCCc1cc(C)[nH]c(=O)c1CNC(=O)c1cc(-c2ccc(N3CCN(C(C)C)CC3)nc2)cc2c1cnn2C(C)C [Compound 9, UNC1999]

Source: article PMC10799085, “A miniaturized mode-of-action profiling platform enables high throughput characterization of the molecular and cellular dynamics of EZH2 inhibition” (Scientific Reports, 2024)
